For series [1] the following is noted: for Particle size range (nm): Example 16, Table 5: doxorubicin-sugar-siosomes of the cationic organosilicon compound; for Particle size range of the Doxorubicin-siosomes (nm): Example 18: doxorubicin-siosomes prepared from the single organosilicon compound; for Particle size of the siosomes (nm): Example 21 (i): nucleic acid-siosomes complex of the cationic silane.
Description: The siosome size was measured using Zetasizer (Malvern Instruments).
The obtained test samples were analyzed using a Zetasizer from Malvern to measure the particle size of the Siosomes® and its concentration (via determination of the count rate which related to the sample quality and concentration).
The Zetasizer from Malvern performs particle size measurements using a process called Dynamic Light Scattering (DLS). Dynamic Light Scattering (also known as PCS - Photon Correlation Spectroscopy) measures Brownian motion and relates this to the size of the particles. It does this by illuminating the particles with a laser and analyzing the intensity fluctuations in the scattered light. If the particles or molecules are illuminated with a laser, the intensity of the scattered light fluctuates at a rate that is dependent upon the size of the particles as smaller particles are "kicked" further by the solvent molecules and move more rapidly.

Series [2] can be described thus: Encapsulation efficiency of doxorubicin hydrochloride in siosomes (absorbance at 480 nm after gel filtration). The class given is physicochemical. The method, then:
A doxorubicin hydrochloride solution at 10 mg/ml was prepared using physiological saline. The predetermined amount of the doxorubicin hydrochloride solution was added to the sugar siosome dispersion using the cationic organosilicon compounds such as 1.2-(Dimethyldecylsilyl)ethyl-beta-D-glucosamin, 2.2-(Dimethyloctylsilylcholin)ethyl-beta-D-glucopyranosid and/or 1.2-(DiN,N,N,trimethylammoniadecylsilyl)ethyl-beta-D-glucopyranosid and the mixture was adjusted to pH 7.4, using 1 N NaOH or saturated sodium hydrogencarbonate and the mixture was stirred at 65°C for 30 minutes the thereby introduce the doxorubicin hydrochloride in the siosomes.
After doxorubicin hydrochloride introduction, the sample was cooled in an ice bath. Gel filtration was conducted using a column (Sepharose 4, fast flow, having a diameter of 2.8 cm and a length of 20 cm, fully substituted with 10% sucrose (pH 6.5)) to remove the doxorubicin hydrochloride that had not been introduced in the siosomes.
The amount of the sugar silanes in the siosomes, the amounts of the doxorubicin hydrochloride encapsulated in the siosomes and the siosomes themselves were measured by the same methods as in the above examples.
Concentration of the doxorubicin hydrochloride encapsulated in the siosomes was determined by measuring absorbance at 480 nm, using a spectrophotometer for the solution prepared by adding 2 ml of methanol to 40 µl of the doxorubicin siosomes. An alternative HPLC-based assay has also been used for the quantification of the doxorubicin in the formulations.
The above procedures described in example 16 were employed to prepare the carrier siosomes systems in this example. According to these methods of preparation, a dispersion of each of the following organo-silicon compounds were prepared, using doxorubicin hydrochloride solutions at […]. • Sil 8.1: Decyldimethylsilyl-α-D-galactopyranosid • Sil 9.1: Dodecyldimethylsilyl-α-D-glucopyranosid • SIL 15: 1-O-Dioctadecylsilyl-di(2,3,4,6-O-tetracetyl-β-D-galactopyranosid) • SIL 14: 1-o-Dioctadecylsilyl-di(2,3,4,6-O-tetracetyl-β-D-glucopyranosid)1-o- • SIL17: Didodecylsilyl-di(2,3,4,6-O-tetracetyl-β-D-glucopyranosid) • SIL18: Tridodecylsilyl-(2,3,4,6-O-tetracetyl-β-D-glucopyranosid) • Sil22.1 Di(octadecanoyloxy)dimethylsilan
The following parameters have been determined: 1 Physico chemical properties 2 Encapsulated efficiency of doxorubicin 3 Stability 4 Particle size distribution prior to lyophilisation and after dehydration using sterile water for injection 5 Release profile
For orientation: Size exclusion chromatography separates by hydrodynamic size, large species first.

Series [3] is described as follows: Encapsulation efficiency of nucleic acid in cationic silane siosomes. It is filed as physicochemical. The settings on record: Example 21 (i): nucleic acid-siosomes complex of the cationic silane. From the text:
The cationic silanes-lipid mixture and/or the empty cationic siosomes (the same or different siosomes prepared from the same or different silanes) loaded with buffer and/or cations (2^+) such as Ca^2+, Zn^2+, Mg^2+ at selected pH-values, is hydrated in an appropriate medium containing the nucleic acid.
The mixture will be vortexed and/or sonicated for a period of time at suitable temperature.
Procedures for characterisation, particle stirring, stability, release, lyophilisation, sterilisation, rehydration, storage, and administration were employed according to this invention.

The format of series [4] is physicochemical. The note with it: unloaded Siosomes. The method, then:
The following are the general procedures according to this invention for the preparation of the Siosomes® using ethanol injection method: • An ethanol solution of the Sugar Silane was injected rapidly into an excess of de-ionized water through a syringe equipped with a fine needle. The force of injection is in many cases sufficient to achieve a good Siosomes® suspension. In some cases the Siosomes® suspension was sonicated during the injection and afterwards for additional 15-45 minutes. The ratio of injected ethanol to water is maintained in a way that the resulting suspension contains not more than 4-7.5% ethanol. The Siosomes® suspension was prepared with a Sugar Silane concentration of 0.5-2.5 mg/ml depending on the used Silane. With this concentration, the final Siosomes® suspension is ready for use for many applications and for the preparation of the lyophilised Siosomes® powder.
The unloaded Siosomes® prepared according to the procedures of this invention using ethanolic solution injection has been investigated for stability.
The following parameters have been considered: • The optimal particle size of the Siosomes® for the further application of the Siosomes® for the encapsulation of active, for screening and for the performance of in-vitro and in-vivo animal studies • The optimal manufacturing conditions to achieve the best particle size distribution for the required particle size (approximately 90 %) • The performance of the Stability testing for the unloaded Siosomes® using the particle size measurements and their distribution • The performance of the Stability testing of the prepared unloaded Siosomes® at 4°C, 25°C and 37°C and 42°C • Stability testing of the prepared encapsulated Siosomes® at: Acidic conditions, alkaline conditions, oxidative conditions and light
All measurements are performed with a Malvern Zetaziser. The Zetasizer was programmed to perform 3 x 15 measurements for each sample. For each temperature and reading point (for each temperature test series 12 sample measurements were performed) two samples has been tested.
The count rate is measured in Kcps (Kilo counts per second), and enables the samples quality and concentration to be checked.

Series [5] is described as follows: Intracellular distribution of Cis-Oxoplatin within the rat liver, total platinum in liver homogenate and fractions. It is filed as in vivo. The note with it: for Average concentration of total platinum in the liver homogenate: 1.5 mg Cis-Oxoplatin encapsulated in Siosomes of the compound, intravenous, 3 hours after administration. The text has this: • 1. The objective of the study to assess the intracellular distribution of Cis-Oxoplatin (as model drug molecule) in rat liver using Cis-Oxoplatin encapsulated in Siosomes®, using the following organosilicon compounds: • a. Sugar Organosilicon Compound: Didodecylsilyi-di(2,3,4,6-O-tetraacetyl-β-D-glucopyranosid (SIL 17) • b. Cationic Sugar Organosilicon Compound: 2.2-(Dimethyloctylsilylcholin)ethyl- β-D-glucopyranosid (SIL62) • c. Anionic Sugar Organosilicon Compound: 2-(Dimethyidecylsilyl)ethyl-β-D-glucopyranosidsulfate (SIL56) • d. Zwitterionic Sugar Organosilicon Compound: 2-(N,N,N, trimethylammonianonaylsilyl)ethyl- P-D-glucopyranosidsulfate (SIL66) • e. PEGylated Organosilicon Compound: 2-(Dimethyloctylsilylcholin)ethyl-β-D-PEG-acetylglucosaminether (SIL54) • 2. The different Siosomes® using each of the above mentioned organosilicon compounds have been prepared according to the procedures of this invention. The particle size range of the Siosomes® was 120-300 nm.
The Platinum-Siosomes®-Complex formulations were supplied in vials containing 10 mg each. Before administration, the contents of each vial was dissolved using 2 ml of sterile distilled water.
Each rat was administered with 1.5 mg investigative formulation, therefore each rat was administered 300 µl.
At the start of the study, all animals in all treatment groups received 1.5 mg of investigative drug. All drugs given via intravenous route were treated in an ultrasonic bath for five minutes at room temperature.
Tissue fractionation was performed by differential centrifugation yielding 5 fractions: • a. Mitochondrial fraction • b. Cytosol • c. Lysosomes • d. Microsomal fraction • e. Membrane fraction
Animals have been sacrificed 3 hours after the administration of the Siosomes® formulations. The livers have been removed from all animals. The liver homogenate has been prepared from the liver of each treatment group and used for the fractionation of the liver cells.
Each of the animals in the treatment control group for the determination of total platinum in the liver homogenate have been administered the Drug-Siosomes® formulations in the same way/procedures as the treatment groups.
Total platinum concentrations have been determined in each fraction for the treated and untreated animal groups. • Average animal weight = 211.64 ± 21.23 g • Average liver weight = 10.40 ± 1.27 g • Average concentration of total platinum in the liver homogenate of the treatment groups (control) • Group 1: Sugar Organosilicon Compound = 2.34 ± 0.82 µg/g • Group 2: Cationic Sugar Organosilicon Compound = 4.40 ± 1.30 µg/g • Group 3: Anionic Sugar Organosilicon Compound = 2.20 ± 0.90 µg/g • Group 4: Zwitterionic Sugar Organosilicon Compound = 3.10 ± 0.70 µg/g • Group 5: PEGylated Organosilicon Compound = 2.90 ± 1.20 µg/g

The mark [6] stands for this setting: Example 16, Table 5: doxorubicin hydrochloride in sugar siosomes of the cationic organosilicon compound.
Setting [7] is: Example 18: doxorubicin-siosomes prepared from the single organosilicon compound.

Where two headings read alike, the source gives them in different places.

Turning to “Di-N,N,N, trimethylammoniadidodecylsilyl-di(2,3,4,6-O-tetraacetyl-beta-D-glucopyranosid) [SIL 64]”, the “Particle size range (nm)” value in series [1] is 120-200 nm. In series [1], the “Particle size range of the Doxorubicin-siosomes (nm)” value was 140-220 nm. Moreover, the “Particle size of the siosomes (nm)” value in series [1] is 120-220 nm. Also, the figures for the “Encapsulation efficiency (%)” value in series [2] (setting [6]), in series [2] (setting [7]) and in series [3] were 70-85%, 70-75% and 65-75%, respectively.

In the case of `CCCCCCCCCCCC[Si](CCCCCCCCCCCC)(O[C@@H]1O[C@H](COC(C)=O)[C@@H](OC(C)=O)[C@H](OC(C)=O)[C@H]1OC(C)=O)O[C@@H]1O[C@H](COC(C)=O)[C@@H](OC(C)=O)[C@H](OC(C)=O)[C@H]1OC(C)=O` [SIL 17, Didoceclylsilyl-di(2,3,4,6-O-tetraacetyl-β-D-glucopyranosid)], the “Particle size range of the Doxorubicin-siosomes (nm)” value in series [1] is given as 180-240 nm. In addition, the “Encapsulation efficiency (%)” value in series [2] (setting [7]) is recorded as 80-85%. For the same molecule, the “stability of the aqueous solutions of the Siosomes suspensions” value in series [4] (4°C, 25°C, 37°C and 42°C) is “stable for several days”. Further, the count rate result in series [4] (42°C) is “drops a little bit after several days but not drastically”; in series [4] (over several days), “stable”. In addition, the “Average concentration of total platinum in the liver homogenate” value (from here on “Average concentration of total platinum”) in series [5] (rats) was found to be 2.34 ± 0.82 µg/g.

With “1. 2-(Di-N,N,N, trimethylammoniadecylsilyl) ethyl-beta-D-glucopyranosid [SIL 63]”, in series [1], the “Particle size range of the Doxorubicin-siosomes (nm)” value is reported as 120-200 nm and the “Particle size of the siosomes (nm)” value is 150-250 nm. Also, the “Encapsulation efficiency (%)” value in series [2] (setting [7]) is listed as 65-70%. Moreover, in series [3], the “Encapsulation efficiency (%)” value was 70-80%.

As for “2-(N,N,N,trimethylammonia nonanyllsilyl)ethyl-beta-D-glucopyranosid sulfate [SIL 66]”, the “Particle size range of the Doxorubicin-siosomes (nm)” value in series [1] is given as 150-220 nm. Moreover, the “Encapsulation efficiency (%)” value in series [2] (setting [7]) is reported as 55-70%. Moreover, the “Average concentration of total platinum” value in series [5] (rats) worked out at 3.10 ± 0.70 µg/g.

Take “2-(N,N,N,Dimethylammonia-methyl-decylsilyl)ethyl-beta-D-glucopyranosid [SIL 65]”: in series [1], the “Particle size range of the Doxorubicin-siosomes (nm)” value was 200-250 nm and the “Particle size of the siosomes (nm)” value is on record as 160-240 nm. Also, in series [2] (setting [7]), the “Encapsulation efficiency (%)” value is on record as 60-70%. Moreover, in series [3], the “Encapsulation efficiency (%)” value was 80-85%.

Regarding “1. 2-(Dimethyldecylsilyl) ethyl-beta-D-glucosamin [SIL 61]”, in series [1], the “Particle size range (nm)” value was 120-240 nm, the “Particle size range of the Doxorubicin-siosomes (nm)” value is on record as 200-220 nm and the “Particle size of the siosomes (nm)” value was 80-120 nm. The “Encapsulation efficiency (%)” value in series [2] (setting [6]) is 75-82%. For the same molecule, in series [2] (setting [7]), the “Encapsulation efficiency (%)” value is listed as 80-85%. Besides, in series [3], the “Encapsulation efficiency (%)” value is 80-85%.

As to `CCCCCCCCCC[Si](C)(C)CCO[C@@H]1O[C@H](CO)[C@@H](O)[C@H](O)[C@H]1O` [SIL 2, 2-(Dimethyldecylsilyl)ethyl-β-D-glucopyranosid], the particle size diameter entry in series [4] (42°C) is recorded as “growing after 4 days”.

“2. 2-(Dimethyloctylsilylcholin) ethyl-beta-D-glucopyranosid [SIL 62]”: in series [1], the “Particle size range (nm)” value was 150-220 nm, the “Particle size range of the Doxorubicin-siosomes (nm)” value is given as 220-250 nm and the “Particle size of the siosomes (nm)” value is 110-180 nm. The “Encapsulation efficiency (%)” value in series [2] (setting [6]) is listed as 70-80%. Also, the “Encapsulation efficiency (%)” value in series [2] (setting [7]) is 70-75%. Further, the “Encapsulation efficiency (%)” value in series [3] is listed as 75-80%. The “intracellular distribution of the encapsulated drug in all fractions” value in series [5] (rat liver fractions (mitochondrial, cytosol, lysosomes, microsomal, membrane), intravenous application, compared with other Siosomes) is “significantly higher”. The “Average concentration of total platinum” value in series [5] (rats) is 4.40 ± 1.30 µg/g. Further, the “concentration of total platinum in the liver homogenate compared with the other treatment groups” value in series [5] (rats, i.v administration of Cis-Oxoplatin Siosomes, 3 hours) was “significantly higher”.

Values taken from patent EP2563337B1, “CARRIER AND TARGETING SYSTEM COMPRISING A SIOSOMAL COMPOSITION FOR INTRACELLULAR DELIVERY AND TARGETING OF ACTIVE SUBSTANCE” (Salama, Zoser B., priority 2010, dated 2011).
